Experimental data from patent publication US20250145622A1, “SOLID FORMS OF A TRIAZINE DERIVATIVE AS CBL-B MODULATOR” (HOTSPOT THERAPEUTICS, INC., priority 2022, published 2025).
Values after ≈ are worked out from the molar mass of the structure shown. “Also recorded” adds a separate entry of the source. Where two headings read alike, the source gives them in different places. Values belong to the compound of their own block, whether it stands above or below them.

Key:
Assay type in all cases: physicochemical
[1] = Dynamic vapor sorption (DVS), water sorption isotherm
[2] = Solubility determination by solvent addition (visual assessment); details: thermodynamic from solid
Protocol: Aliquots of various solvents were added to measured amounts of the anhydrous crystalline form of the compound of formula (I) at various temperatures with sonication or stirring. Solubilities were calculated based on the total solvent used to give a solution; actual solubilities may be greater because of the volume of solvent portions utilized or a slow rate of dissolution. […] If dissolution occurred at the first aliquot the value was reported as “>”.

[3] = Dynamic vapor sorption (DVS), water sorption isotherm; remark: listed apart in the source
Protocol: Vapor sorption data were collected on a Surface Measurement System DVS Intrinsic instrument. Samples were not dried prior to analysis. Sorption and desorption data were collected over a range from 5% to 95% RH at 10% RH increments under a nitrogen purge. The equilibrium criterion used for analysis was less than 0.0100% weight change in 5 minutes with a maximum equilibration time of 3 hours.

- total water gained ([1]; 5% to 96% RH): 7.6 moles of water
- total weight gained ([1]; 5% to 96% RH): 15.8%
- weight gain ([1]; from 75% to 96% RH): 14.6 % wt.
- solubility ([2]; aqueous with cosolvent or surfactant or cyclodextrin, solvent Water/EtOH (20/80 v/v), read-out: Solubility): > 29 mg/mL
- solubility ([2]; aqueous with cosolvent or surfactant or cyclodextrin, solvent Water/EtOH (40/60 v/v), read-out: Solubility): > 36 mg/mL
- solubility ([2]; aqueous with cosolvent or surfactant or cyclodextrin, solvent Water/EtOH (50/50 v/v), read-out: Solubility): 9 mg/mL (≈ 16.7 mM)
- solubility ([2]; aqueous with cosolvent or surfactant or cyclodextrin, solvent Water/EtOH (60/40 v/v), read-out: Solubility): < 4 mg/mL
- solubility ([2]; aqueous with cosolvent or surfactant or cyclodextrin, solvent Water/IPA (20/80 v/v), read-out: Solubility): > 30 mg/mL
- solubility ([2]; aqueous with cosolvent or surfactant or cyclodextrin, solvent Water/IPA (40/60 v/v), read-out: Solubility): > 37 mg/mL
- solubility ([2]; aqueous with cosolvent or surfactant or cyclodextrin, solvent Water/IPA (60/40 v/v), read-out: Solubility): 9 mg/mL (≈ 16.7 mM)
- solubility ([2]; aqueous with cosolvent or surfactant or cyclodextrin, solvent Water/MeOH (20/80 v/v), read-out: Solubility): > 29 mg/mL
- solubility ([2]; aqueous with cosolvent or surfactant or cyclodextrin, solvent Water/MeOH (40/60 v/v), read-out: Solubility): 7 mg/mL (≈ 13 mM)
- solubility ([2]; aqueous with cosolvent or surfactant or cyclodextrin, solvent Water/MeOH (60/40 v/v), read-out: Solubility): < 3 mg/mL
- solubility ([2]; organic solvent or mixture, solvent ACN, read-out: Solubility): 85 mg/mL (≈ 158 mM)
- solubility ([2]; organic solvent or mixture, solvent Acetone, read-out: Solubility): 31 mg/mL (≈ 57.6 mM)
- solubility ([2]; organic solvent or mixture, solvent DCM, read-out: Solubility): > 100 mg/mL
- solubility ([2]; organic solvent or mixture, solvent DIPE, read-out: Solubility): < 2 mg/mL
- solubility ([2]; organic solvent or mixture, solvent EtOAc, read-out: Solubility): 38 mg/mL (≈ 70.6 mM)
- solubility ([2]; organic solvent or mixture, solvent EtOH, read-out: Solubility): 99 mg/mL (≈ 184 mM)
- solubility ([2]; organic solvent or mixture, solvent Heptane, read-out: Solubility): < 1 mg/mL
- solubility ([2]; organic solvent or mixture, solvent IPA, read-out: Solubility): 79 mg/mL (≈ 147 mM)
- solubility ([2]; organic solvent or mixture, solvent MTBE, read-out: Solubility): 4 mg/mL (≈ 7.43 mM)
- solubility ([2]; organic solvent or mixture, solvent MeOH, read-out: Solubility): 91 mg/mL (≈ 169 mM)
- solubility ([2]; organic solvent or mixture, solvent THF, read-out: Solubility): 95 mg/mL (≈ 176 mM)
- solubility ([2]; organic solvent or mixture, solvent Toluene, read-out: Solubility): 99 mg/mL (≈ 184 mM)
- solubility ([2]; solvent Water, read-out: Solubility): < 1 mg/mL
- XRPD analysis on the post-DVS sample (solid form) ([3]; after DVS): amorphous
- weight gain ([3]; from 5% to 74% RH): 1.2 % wt.
- water taken up during sorption ([3]; from 5 to 95% RH): 0.1 moles of water per mole of API
- weight gain during the sorption step ([3]; from 5 to 95% relative humidity (RH)): 0.4%
- appearance of sample after DVS ([3]; upon desorption): signs of partial deliquescence
- hygroscopicity classification ([3]; water sorption isotherm, Ph. Eur. 10.0 classes): slightly hygroscopic
SMILES: C[C@H]1CCCN(Cc2cc(C(F)(F)F)c3cn(-c4cccc([C@H](c5nncn5C)C5CCC5)c4)c(=O)n3c2)C1 [2-(3-((R)-cyclobutyl(4-methyl-4H-1,2,4-triazol-3-yl)methyl)phenyl)-6-(((S)-3-methylpiperidin-1-yl)methyl)-8-(trifluoromethyl)imidazo[1,5-a]pyridin-3(2H)-one]
- hysteresis on desorption ([3]; desorption step): very minor hysteresis; also recorded: Significant hysteresis

- solubility ([2]; water, 25° C., by solvent addition, read-out: aqueous solubility): > 111 mg/mL
SMILES: C[C@H]1CCCN(Cc2cc(C(F)(F)F)c3cn(-c4cccc([C@H](c5nncn5C)C5CCC5)c4)c(=O)n3c2)C1
